These results are taken from PubChem BioAssay (NCI).

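Interpolation was linear, between the two tested concentrations surrounding the appropriate level; five concentrations were tested over 48 hours in 96-well plates. TGI marks complete inhibition of growth.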 Bounds are passed on as bounds.

Experiment in all cases: DTP human tumour cell line panel, 48 h
In assay [1] the test system is CAKI-1 renal.
In assay [2] the test system is CCRF-CEM leukemia.
The subject of assay [3] is SNB-19 CNS.
Assay [4] relates to MOLT-4 leukemia.
In assay [5] the test system is OVCAR-3 ovarian.
For assay [6], the system named is NCI-H226 lung.
Assay [7] deals with SN12C renal.

`OCC(O)COc1c(Cl)cc(Cl)cc1Cl` (centres undefined): the TGI is above 100 µM in assay [1]; above 61.9 µM in assay [2]; above 100 µM in assay [3]; above 31.6 µM in assay [4]; above 100 µM in assay [5]; above 100 µM in assay [6]. In assay [7], this molecule yielded a TGI above 100 µM.

Consider `c1ccc2c(c1)Sc1ccccc1N2C1CN2CCC1CC2` (centres undefined), for which the total growth inhibition concentration (TGI) in assay [1] came out at 33.9 µM; in assay [2], 33.9 µM; in assay [3], 46.7 µM; in assay [4], 28.1 µM; in assay [5] it was 31.5 µM; in assay [6] it was 18.9 µM. Further, the TGI in assay [7] came to 29.1 µM.

On to `Nc1c(C(=O)NC23CC4CC(CC(C4)C2)C3)[n+]([O-])c2ccccc2[n+]1[O-]`, for which the TGI in assay [1], in assay [2], in assay [3], in assay [4], in assay [5] and in assay [6] was above 100 µM each time. In assay [7], this molecule came in with a TGI above 100 µM.

In the case of `Cn1nc2ccc3nccc(NCCNCCO)c3c2n1`, the TGI in assay [1] is above 100 µM; in assay [2] it was above 100 µM; in assay [3] it was above 100 µM; in assay [4] it was 69 µM; in assay [5] it was above 100 µM; in assay [6] it was 85.8 µM. In addition, the TGI in assay [7] was above 100 µM.

In the case of `C[N+](C)(C)CC(=O)N/N=C(/Cc1nc2ccc([N+](=O)[O-])cc2[nH]c1=O)C(=O)Nc1cc(C(F)(F)F)ccc1Cl`, the TGI in assay [1], in assay [2], in assay [3], in assay [4], in assay [5] and in assay [7] was above 100 µM throughout.

For `COc1ccc(OC(C)C(=O)O)c2c1CCCC2=O` (centres undefined), the TGI in assay [2], in assay [3], in assay [4], in assay [5], in assay [6] and in assay [7] was above 100 µM each time.

Regarding `O=C(/C=C/c1ccccc1O)c1cccc2ccccc12`, the TGI was above 100 µM in assay [1]; 54 µM in assay [2]; above 100 µM in assay [3]; above 83.7 µM in assay [4]; above 100 µM in assay [5]; above 100 µM in assay [6]. The same molecule had a TGI in assay [7] above 100 µM.

For `Cc1ccc(NC(=O)/C(=N/NC(=O)C[N+](C)(C)C)c2nc3ccccc3[nH]c2=O)cc1`, the TGI in assay [1], in assay [3], in assay [4], in assay [5], in assay [6] and in assay [7] was above 100 µM throughout.

As to `O=C1CCNC(=O)NC1`, the TGI is above 100 µM in assay [1]; above 100 µM in assay [2]; above 100 µM in assay [3]; 56.6 µM in assay [4]; above 100 µM in assay [5]; above 100 µM in assay [6]. Moreover, the TGI in assay [7] is above 100 µM.

With `C[N+](C)(C)CC(CC(=O)[O-])C1CC1` (centres undefined), the TGI in assay [1], in assay [2], in assay [3], in assay [4], in assay [5] and in assay [7] was above 100 µM throughout.

As to `Cc1ccc(/C=C/C(=O)c2ccc([N+](=O)[O-])cc2)cc1`, the total growth inhibition concentration (TGI) in assay [1], in assay [2], in assay [3], in assay [4], in assay [5] and in assay [6] was above 100 µM each time. Besides, the concentration for total growth inhibition (TGI) in assay [7] is above 100 µM.

As for `CN(C(=O)C12C3C4C1C1C2C3C41C(O)C(C)(C)C)C(C)(C)C` (centres undefined), the TGI in assay [1], in assay [2], in assay [3], in assay [4], in assay [5] and in assay [6] was above 100 µM each time. The TGI in assay [7] is above 100 µM.

On to `C=C1CCC2C(C)(CO)C(O)CCC2(C)C1C/C=C1/CCOC1=O` (centres undefined), for which the concentration for total growth inhibition (TGI) in assay [1], in assay [2], in assay [3], in assay [4], in assay [5] and in assay [6] was above 100 µM throughout. The molecule further came in with a TGI in assay [7] above 100 µM.

As to `ClC1c2ccccc2C2(c3ccccc3)OOC1(c1ccccc1)O2` (centres undefined), the total growth inhibition concentration (TGI) in assay [1] is 6.19 µM; in assay [3] it was 3.21 µM; in assay [4], 3.56 µM; in assay [5] it was 3.3 µM; in assay [6] it was 4.08 µM; in assay [7], 2.9 µM.

Turning to `COc1cc(C(O)C(=O)c2cnc3cc([N+](=O)[O-])ccc3n2)ccc1O` (centres undefined), the TGI in assay [1], in assay [2], in assay [3], in assay [4] and in assay [7] was above 100 µM in each case.

Take `CC(=O)OCCOCNC(=S)N/N=C(\C)c1cccs1`: the TGI in assay [2], in assay [3], in assay [4], in assay [5], in assay [6] and in assay [7] was above 100 µM each time.

What is called TGI is the concentration giving total growth inhibition.
